Data taken from patent US20170291882A1, “Solid Forms of Mirabegron” (Apotex Inc., priority 2014, published 2017).
Values after ≈ are worked out from the molar mass of the structure shown. Like-named read-outs stand apart in the source and are kept apart here.

Tests used:
[1] = Hygroscopicity testing (desiccator with saturated ammonium sulphate solution, 25° C., 24 hours); assay type: physicochemical; conditions: 1 g, unstoppered vessel over saturated ammonium sulphate solution
Method: The hygroscopicity testing was conducted by placing 1 g of form APO-I Mirabegron in an unstoppered weighing vessel in a desiccator containing a saturated ammonium sulphate solution. The desiccator was placed in an oven at 25° C. for 24 hours. After this time, the percentage increase in mass was 0.89%.

[2] = Solubility testing of forms of Mirabegron (suspension stirred at room temperature, supernatant dried to constant weight); assay type: physicochemical
Method: Solubility testing was conducted by preparing a suspension of the subject form of Mirabegron in the indicated solvent and stirring the suspension for the indicated time period at room temperature. After this time, excess solid was removed by filtration and the volume of the supernatant was recorded. The supernatant was concentrated in vacuo and dried to constant weight to afford a solid. The solubility is shown as the weight of solid/volume of supernatant in mg/mL. The α-form and β-form of Mirabegron refer to the forms as characterized in CA 2 464 068 C.
Phosphate buffer was prepared by dissolving potassium dihydrogen phosphate (340 mg) and disodium hydrogen phosphate (353 mg) in deionized water (100 mL).

[3] = cited from earlier work; for hygroscopicity (in words): as disclosed in CA 2 464 068 C

Question: Which “percentage increase in mass” value [1] does the source give for Nc1nc(CC(=O)Nc2ccc(CCNC[C@H](O)c3ccccc3)cc2)cs1 [Form APO-I, Mirabegron] here?
Answer: The value was 0.89%.

Question: What about the solubility at 2 h ([2]; 0.1M HCl, simulated gastric fluid, thermodynamic from solid, 2 hours) of the same molecule?
Answer: The solubility at 2 h was 15 mg/mL (≈ 37.8 mM).

Question: And the Solubility ([2]; Distilled water, 2 hours, listed as APO-I)?
Answer: Its Solubility is 0.5 mg/mL (≈ 1.26 mM).

Question: What about the Solubility ([2]; Ethanol (denatured), 0.5 hours, listed as APO-I) of the same molecule?
Answer: Its Solubility is 62.8 mg/mL (≈ 158 mM).

Question: What about the Solubility ([2]; Phosphate buffer (pH 6.8), 2 hours, listed as APO-I) of the same molecule?
Answer: The Solubility was 6.2 mg/mL (≈ 15.6 mM).

Question: Which results are given for Nc1nc(CC(=O)Nc2ccc(CCNC[C@H](O)c3ccccc3)cc2)cs1 [Form α, (R)-2-(2-aminothiazol-4-yl)-4′-[2-[(2-hydroxy-2-phenylethyl)amino]ethyl]acetanilide]?
Answer: Solubility ([2]; 0.1M HCl, 2 hours): 13.0 mg/mL (≈ 32.8 mM); Solubility ([2]; Distilled water, 2 hours, listed as α): 0.2 mg/mL (≈ 0.504 mM); Solubility ([2]; Ethanol (denatured), 0.5 hours, listed as α): 21.3 mg/mL (≈ 53.7 mM); Solubility ([2]; Phosphate buffer (pH 6.8), 2 hours, listed as α): 2.5 mg/mL (≈ 6.3 mM); hygroscopicity (in words) ([3]; listed as α-form crystal): no hygroscopicity

Question: For Nc1nc(CC(=O)Nc2ccc(CCNC[C@H](O)c3ccccc3)cc2)cs1 [Form β, (R)-2-(2-aminothiazol-4-yl)-4′-[2-[(2-hydroxy-2-phenylethyl)amino]ethyl]acetanilide], which Solubility ([2]; Ethanol (denatured), 0.5 hours, listed as β) is on record?
Answer: Its Solubility is 27.2 mg/mL (≈ 68.6 mM).

Question: And the “hygroscopicity (in words)” value ([3]; listed as β-form crystal)?
Answer: Its value is “relatively low hygroscopicity”.

Question: And the “moisture held (hygroscopic)” value ([3]; reported in CA 2 464 068 C)?
Answer: The value was “up to 3%”.
